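Grown in 96-well plates, cells were treated for 48 hours with each compound at five concentrations. Insufficient inhibition: endpoint recorded as highest concentration tested. GI50 marks 50% less growth. TGI denotes the concentration required for complete inhibition of growth.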
What was measured:
Experiment in all cases: NCI anticancer screen, dose series, 48 h
UACC-257 melanoma = system: UACC-257 melanoma
SK-MEL-2 melanoma = system: SK-MEL-2 melanoma
KM12 colon = system: KM12 colon
OVCAR-8 ovarian = system: OVCAR-8 ovarian
K-562 leukemia = system: K-562 leukemia
IGROV1 ovarian = system: IGROV1 ovarian
HCC-2998 colon = system: HCC-2998 colon
MOLT-4 leukemia = system: MOLT-4 leukemia
HCT-15 colon = system: HCT-15 colon
MDA-MB-231 breast = system: MDA-MB-231 breast

Structure (SMILES)	TGI (UACC-257 melanoma)	TGI (SK-MEL-2 melanoma)	TGI (KM12 colon)	TGI (OVCAR-8 ovarian)	TGI (K-562 leukemia)	TGI (IGROV1 ovarian)	TGI (HCC-2998 colon)	TGI (MOLT-4 leukemia)	TGI (HCT-15 colon)	GI50 (UACC-257 melanoma)	GI50 (SK-MEL-2 melanoma)	GI50 (OVCAR-8 ovarian)	GI50 (K-562 leukemia)	GI50 (HCT-15 colon)	GI50 (HCC-2998 colon)	GI50 (MDA-MB-231 breast)	TGI (MDA-MB-231 breast)	GI50 (KM12 colon)	GI50 (MOLT-4 leukemia)	GI50 (IGROV1 ovarian)
O=NN(CC1(O)OCC(O)C(O)C1O)C(Cc1c[nH]c2ccccc12)C(=O)O (stereo not drawn)	> 100 µM	> 100 µM	> 100 µM	> 100 µM	> 100 µM	> 100 µM	> 100 µM	> 100 µM												
CCN(CC)C(=O)c1cccc2c(OC)ccc(OC)c12	> 100 µM	> 100 µM	> 100 µM	> 100 µM	> 100 µM	> 100 µM	> 100 µM	> 100 µM	> 100 µM											
CCC(=O)N1C(=S)SC[C@H]1C(=O)OC	> 100 µM		> 100 µM	> 100 µM	> 100 µM	> 100 µM	> 100 µM	> 100 µM												
c1ccc2[nH]c(-c3ccc(Nc4nc(N5CCCC5)nc5[nH]ncc45)cc3)nc2c1	0.632 µM	3.37 µM		0.621 µM	0.466 µM		0.826 µM		0.763 µM	0.229 µM	1.71 µM	0.241 µM	0.202 µM	0.255 µM	0.294 µM					
O=C1C2C3SC(c4cc5ccccc5cc43)C2C(=O)N1c1ccccc1 (stereo not drawn)	> 100 µM	> 100 µM	> 100 µM	> 100 µM	> 100 µM	> 100 µM	> 100 µM	> 100 µM	> 100 µM											
CCN(CC)CC(C(=O)Nc1c(C)cccc1C)/C(C)=N\NC(=S)NN (stereo not drawn)	> 100 µM	> 100 µM	> 100 µM	> 100 µM	> 100 µM	> 100 µM	> 100 µM	> 100 µM												
O=C(O)CN(CCN(CC(=O)O)CC(=O)O)CCN(CC(=O)O)CC(=O)O	18.8 µM	9.8 µM	37.6 µM	14.8 µM			27 µM	8.26 µM	20.9 µM	4.35 µM	3.16 µM	3.19 µM		3.67 µM	4.42 µM	10.5 µM	87.6 µM	4.94 µM	2.57 µM	
Cc1cc[c]([Sb]2[O]C(CO)C(C(O)C(O)C(=O)O)[O]2)cc1 (stereo not drawn)		45.5 µM	> 100 µM	> 100 µM	> 100 µM	> 100 µM		> 100 µM	> 100 µM		21.4 µM	> 100 µM	46.5 µM	> 100 µM		78 µM	> 100 µM	46.7 µM	78.7 µM	> 100 µM
CCOC(=O)c1sc2nc(=S)[nH]c(NC(N)=S)c2c1C	47.3 µM	> 100 µM	52.7 µM	63.3 µM	> 100 µM	> 100 µM		> 100 µM	39.2 µM	24.6 µM	46.7 µM	25.4 µM	28.3 µM	16.7 µM		12.1 µM	31.9 µM	23.5 µM	30.1 µM	31.5 µM
O=C(c1ccccc1)c1nc2ccc(Cl)cc2cc1C(Br)Br	1.54 µM	1.88 µM	1.06 µM	1.32 µM	3.55 µM	4.38 µM	2.88 µM	11.8 µM	0.879 µM											
COc1ccc(C(O)C(c2ccc(OCc3ccccc3)cc2)c2ccc(OCc3ccccc3)cc2)cc1 (stereo not drawn)		> 100 µM	> 100 µM	> 100 µM	> 100 µM	> 100 µM	> 100 µM		> 100 µM											
[O-]c1ccccc1C=NCCN=Cc1ccccc1[O-].[O]=[U+2]=[O]	> 78.1 µM	> 62.7 µM	> 100 µM	> 94.6 µM	> 100 µM	61.6 µM	83.6 µM	> 100 µM	> 100 µM	34.5 µM	22 µM	31.2 µM	> 79.5 µM	36.8 µM	27.9 µM			57.1 µM	53.7 µM	26.1 µM
Cc1cc(C)c2c(c1)CSCc1cc(C)cc(C)c1-2	74.1 µM	43.9 µM	> 100 µM	> 100 µM	> 100 µM	> 100 µM	> 100 µM	41.4 µM	> 100 µM											
O=C1/C(=C/c2cc(O)c(O)c(O)c2)Oc2cc(O)cc(OC3OC(CO)C(O)C(O)C3O)c21 (stereo not drawn)		47.7 µM	> 100 µM	35.7 µM	34.9 µM	> 100 µM	> 100 µM	43.4 µM	57.5 µM											
CC1COS(=O)N1c1ccccc1 (stereo not drawn)	> 100 µM	> 100 µM	> 100 µM	> 100 µM	> 100 µM	> 100 µM	> 100 µM	> 100 µM	> 100 µM											
O=[N+]([O-])c1ccc(Cl)c(C2CC(c3cccc4ccccc34)=Nc3ccccc3S2=O)c1 (stereo not drawn)	> 86.4 µM	37.4 µM	> 100 µM	20.8 µM	37 µM	> 85.1 µM	> 50.3 µM	62.8 µM	> 100 µM											
O=C1c2ccccc2C(=O)N1C/C=N/NS(=O)(=O)c1cccc([N+](=O)[O-])c1	> 100 µM	> 100 µM	> 100 µM	> 100 µM	> 100 µM	> 100 µM	> 100 µM	> 100 µM	> 100 µM											
O=S(=O)(c1ccccc1)N1CCC1c1ccccc1 (stereo not drawn)	> 100 µM	> 100 µM	> 100 µM	> 100 µM	> 100 µM	> 100 µM	> 100 µM	> 100 µM	> 100 µM											
CCOc1ccc2c(c1)[n+]([O-])c(C(N)=O)c(N)[n+]2[O-]	> 100 µM	> 100 µM	> 100 µM	> 100 µM	> 100 µM	> 100 µM		> 100 µM												
CSC(=Nc1ccc([N+](=O)[O-])cc1C#N)NC(=O)c1ccccc1	> 100 µM		> 100 µM	> 100 µM	> 100 µM	> 100 µM	> 100 µM	> 100 µM	> 100 µM											
CC1=NC2(C(=O)O)C3(C(=O)O)N=C(C)OC3(C(F)(F)F)C2(C(F)(F)F)O1 (stereo not drawn)	> 100 µM	> 100 µM	> 100 µM	> 100 µM	> 100 µM	> 100 µM	> 100 µM	> 100 µM												

Source: PubChem BioAssay (NCI)
